Assay results as given in US4775758A, “Phospholipids” (Takeda Chemical Industries, Ltd., priority 1983, dated 1988).

What was measured:
Meth A cells = experiment: Antitumor activity, subcutaneous Meth A, administration on the transplanted portion, tumor weight; assay type: in vivo; conditions: 0.25 mg/mouse on the transplanted portion once a day for 4 days; Meth A s.c., CDF1 mice; ten days later
Procedure: Antitumor activity of 1,3-dinonyloxypropane-2-yl 2-trimethylammonioethyl phosphate (Example 9)
Meth A cells (1×10^6 cells per mouse) were transplanted subcutaneously to CDF1 mice (a group consisting of 5 mice). On the other hand, a solution of 0.25 mg/mouse of the compound of Example 9 in 0.05 ml of physilogical saline was given to each of the mice on the portion transplanted with the cells once a day for 4 consecutive days from the 1st day following the transplantation. Ten days later, the tumor tissues were removed, and the weight of tumors was measured.

MM46 cells = experiment: Antitumor activity, intraperitoneal MM46, administration before and after inoculation, survival; assay type: in vivo; conditions: 5 animals per group; 0.25 mg/mouse i.p., 4 days before and 4 days after 1×10^4 MM46 cells i.p.; C3H/He mice; controls all died within 19 days
Procedure: Antitumor activity of the compound of Example 9
The compound of Example 9 was intraperitoneally administered to C3H/He mice (5 animals per group) in a dose of 0.25 mg/mouse for 4 consecutive days.
On the 5th day, 1×10^4 MM46 cells were intraperitoneally inoculated into each mouse, and the compound of Example 9 was again administered intraperitoneally to the mice in a dose of 0.25 mg/mouse for 4 days starting from day 1 after inoculation.
The mice in the control group all died within 19 days after tumor implantation, whereas, in the drug-treated group, 3 animals survived on day 60.

sarcoma 180 cells [1] = experiment: Antitumor activity, intraperitoneal sarcoma 180, three administrations, life span; assay type: in vivo, ICR mice
Text: ICR mice (5 animals per group) were intraperitoneally inoculated with 1×10^5 sarcoma 180 cells per mouse. […] The life span prolonging ratio as compared with the control (no drug treatment) group was 198, and 1 animal survived on day 60.

platelet = conditions: Biochemical and Biophysical Research Communications, 99, 183 (1981); cited from earlier work
[2] = rat, in vivo, iv
Procedure: Male 7-week aged Sprague-Dawley rats (weighing 200 to 290 g) were anesthetized by intraperitoneal administration of 60 mg/kg of pentobarbital sodium, and the left carotids (for the measurement of blood pressure) and left femoral veins (for the intravenous administration) were cannulated.

sarcoma 180 cells [3] = experiment: Antitumor activity (simultaneous administration), intraperitoneal sarcoma 180, life span; assay type: in vivo, ICR mice; conditions: for rate of life prolongation against the control group: 1 mg/mouse i.p. after i.p. transplantation of 1×10^5 sarcoma 180 cells, ICR mice
Procedure: Antitumor activity (simultaneous administration) of 1,3-dioctyloxypropane-2-yl 2-trimethylammonioethyl phosphate (Example 1)
Sarcoma 180 cells (1×10^5 cells per mouse) was transplanted intraperitoneally to ICR mice (a group consisting of 5 mice). Subsequently, the compound of Example 1 (1 mg/mouse) was dissolved in physiological saline, and administered intraperitoneally to each of the mice. In the group given the drug compound, two mice survived 60 days, and the rate of life prolongation against the control group not given the drug compound was 458.

P 388 leukemia cells = experiment: Antitumor activity, P 388 leukemia cells mixed with compound and transplanted subcutaneously, tumor weight; assay type: in vivo; conditions: 1×10^6 P 388 cells mixed with 0.1 g of compound, s.c., CDF1 mice; tumor weight on 10th day
Text: Antitumor activity of 1,3-dioctyloxypropane-2-yl 2-thiazolioethyl phosphate (Example 3)
P 388 leukemia cells (1×10^6 cells) were mixed with 0.1 g of the compound of Example 3, and transplanted subcutaneously to each of CDF1 mice (a group consisting of 5 mice).

sarcoma 180 cells [4] = experiment: Antitumor activity, intraperitoneal sarcoma 180, 9 consecutive days, life span; assay type: in vivo; conditions: 25 mg/kg i.p., 4×10^5 sarcoma 180 cells i.p., ICR mice
Procedure: Antitumor activity of 1,3-diheptyloxypropane-2-yl 2-trimethylammonioethyl phosphate (Example 10)
Sarcoma 180 cells (4×10^5 cells per mouse) were transplanted intraperitoneally to ICR mice (a group consisting of 5 mice). The compound of Example 10 was administered intraperitoneally to the mice at the single dose rate of 25 mg/kg for 9 consecutive days from the day following transplantation.

Saccharomyces cerevisiae = experiment: Antifungal action, MIC by serial dilution technique; assay type: cell-based; conditions: 1% glucose bouillon agar
sarcoma 180 cells [5] = experiment: Antitumor activity, subcutaneous sarcoma 180, intravenous administration, tumor weight; assay type: in vivo; conditions: 0.06 mg/mouse i.v., 9 times, 7th to 20th day; tumor weight on 21st day; sarcoma 180 s.c., ICR mice
Procedure: (§1) Antitumor activity of 1,3-dioctyloxypropane-2-yl 2-trimethylammonioethyl phosphate (Example 1)
(§2) Sarcoma 180 cells (1×10^6 cells) were transplanted subcutaneously to each of ICR mice (a group consisting of 5 mice). The compound of Example 1 was injected intravenously to the mice at the single dose rate of 0.06 mg/mouse 9 times over the period of from the 7th day after the transplantation to the 20th day. On the 21th day, the mice were anatomized, and the weight of tumors was measured.

Mucor spinescens = experiment: Antifungal action, MIC by serial dilution technique; assay type: cell-based; conditions: 1% glucose bouillon agar
sarcoma 180 cells [6] = experiment: Antitumor activity (pre-administration), intraperitoneal sarcoma 180, life span; assay type: in vivo; conditions: 1 mg/mouse i.p., 4 days before i.p. transplantation of 1×10^5 sarcoma 180 cells; ICR mice
Procedure: Antitumor activity (pre-administration) of 1,3-dioctyloxypropane-2-yl 2-trimethylammonioethyl phosphate (Example 1)
A 1 mg/mouse of the compound of Example 1 was admixed with physiological saline, and administered intraperitoneally to ICR mice (a group consisting of 5 mice). Four days later, 1×10^5 sarcoma 180 cells per mouse was transplanted intraperitoneally to each of the mice.

sarcoma 180 cells [7] = experiment: Antitumor activity, subcutaneous sarcoma 180, intraperitoneal administration, tumor weight; assay type: in vivo; conditions: 0.2 mg/mouse i.p., 13 times, 2nd to 20th day; tumor weight on 21st day; sarcoma 180 s.c., ICR mice
Procedure: as §1
as §2, with “administered intraperitoneally” for “injected intravenously”, “0.2” for “0.06”, “13” for “9”, “2nd” for “7th”, “day” for “day after the transplantation”

Helminthosporium oryzae = experiment: Antifungal action, MIC by serial dilution technique; assay type: cell-based; conditions: Bipolaris oryzae
Piricularia oryzae = experiment: microbe, parasite or virus in culture; assay type: cell-based
Elsinoe fawcetti = experiment: Antifungal action, MIC by serial dilution technique; assay type: cell-based; conditions: 1% glucose bouillon agar
Procedure: (§3) Antifungal action of 1,3-dioctyloxypropane-2-yl 2-trimethylammonioethyl phosphate (Example 1)
(§4) Using typical fungi, the minimal inhibition concentrations (MIC) were determined with the compound of Example 1 by the serial dilution technique on a 1% glucose bouillon agar culture medium.

Cercospora beticola = experiment: as above; assay type: cell-based; conditions: 1% glucose bouillon agar
Procedure: as §3, §4

Botrytis cinerea = experiment: as above; assay type: cell-based; conditions: 1% glucose bouillon agar
Procedure: as §3, §4

Diaporthe citri = experiment: as above; assay type: cell-based; conditions: 1% glucose bouillon agar
Procedure: as §3, §4

Cladosporium herbarum = experiment: as above; assay type: cell-based; conditions: 1% glucose bouillon agar
Procedure: as §3, §4

Penicilium citrinum = experiment: as above; assay type: cell-based; conditions: 1% glucose bouillon agar

CCCCCCCCCOCC(COCCCCCCCCC)OP(=O)([O-])OCC[N+](C)(C)C [Example 9, 1,3-Dinonyloxypropane-2-yl 2-trimethylammonioethyl phosphate]
growth inhibition rate of tumor (Meth A cells): 76%
animals survived on day 60 (MM46 cells): 3 animals
life span prolonging ratio as compared with the control (sarcoma 180 cells [1]; 0.33 mg/mouse three times (hour 1, day 1, day 2), 1×10^5 sarcoma 180 cells i.p., ICR mice): 198
animal survived on day 60 (sarcoma 180 cells [1]; 5 animals per group, 0.33 mg/mouse three times, sarcoma 180 i.p.): 1 animal

CCCCCCCCCCCCCCCCCCOCC(COP(=O)([O-])OCC[N+](C)(C)C)OC (stereo not drawn) [compound (XI)]
platelet aggregating action (platelet): has platelet aggregating action
blood pressure lowering action (in words) [2]: possesses blood-pressure lowering action

CCCCCCCCOCC(COP(=O)([O-])OCC[N+](C)(C)C)OCCCCCCCC (stereo not drawn) [2,3-dioctyloxypropyl 2-trimethylammonioethyl phosphate, reference compound]
rate of life prolongation against the control group (sarcoma 180 cells [3]): 195

CCCCCCCCOCC(COCCCCCCCC)OP(=O)([O-])OCC[n+]1ccsc1 [Example 3, 1,3-Dioctyloxypropane-2-yl 2-thiazolioethyl phosphate]
growth inhibition rate of tumor (P 388 leukemia cells): 83%

CCCCCCCOCC(COCCCCCCC)OP(=O)([O-])OCC[N+](C)(C)C [Example 10, 1,3-Diheptyloxypropane-2-yl 2-trimethylammonioethyl phosphate]
rate of life span prolongation against the control group (T/C) (sarcoma 180 cells [4]): 295

CCCCCCCCOCC(COCCCCCCCC)OP(=O)([O-])OCC[N+](C)(C)C [Example 1, 1,3-Dioctyloxypropane-2-yl 2-trimethylammonioethyl phosphate]
MIC (Saccharomyces cerevisiae): 25 mg/L
growth inhibition rate of tumor (sarcoma 180 cells [5]): 52%
MIC (Mucor spinescens): 12.5 mg/L
rate of life span prolongation against the control group (T/C) (sarcoma 180 cells [6]): 225
rate of life prolongation against the control group (sarcoma 180 cells [3]): 458
mice survived 60 days (sarcoma 180 cells [3]; group of 5 mice, 1 mg/mouse i.p., sarcoma 180 i.p.): two
growth inhibition rate of tumor (sarcoma 180 cells [7]): 54%
MIC (Helminthosporium oryzae): 3.12 mg/L
MIC (Piricularia oryzae): 6.25 mg/L
MIC (Elsinoe fawcetti): 3.12 mg/L
MIC (Cercospora beticola): 6.25 mg/L
MIC (Botrytis cinerea): 3.12 mg/L
MIC (Diaporthe citri): 6.25 mg/L
MIC (Cladosporium herbarum): 6.25 mg/L
MIC (Penicilium citrinum): 12.5 mg/L
